Data reported in patent US10240154B2, “RNA products and uses thereof” (IFOM Fondazione Istituto FIRC di Oncologia Molecolare, priority 2012, dated 2019).

How the values were obtained:
HeLa cells [1] = assay: DDR foci formation in the RNase A in vitro cell system with translation inhibitor; assay type: cell-based, human; settings: data not shown
Description: (§1) Cells were plated on poly-D-lysinated coverslips and irradiated with 2Gy of IR. 1 h after HeLa cells were permeabilized with 2% Tween 20 in PBS for 10 minutes at RT while I-Sce I-transfected NIH2/4 cells were permeabilized in 0.5% Tween 20 in PBS for 10 minutes at RT. RNase A treatment was carried out in 1 ml of 1 mg/ml Ribonuclease A from bovine pancreas (Sigma-Aldrich cat n: R5503) in PBS for 25 minutes at room temperature. After RNase A digestion, the samples were washed with PBS, treated with 80 units of RNase inhibitor (RNaseOUT Invitrogen 40 units/μl) and 2 μg/ml of α-amanitin (SIGMA) for 15 minutes in a total volume of 70 μl. […] Then, RNase A-treated cells were incubated with total, small or gel extracted RNA, or the same amount of tRNA, for additional 15 minutes at room temperature. […] Cell were then fixed with 4% paraformaldehyde or methanol:acetone 1:1.

Dicer = settings: RNA with aptamer-binding site for paromomycin; according to the amount of ligand; cited from earlier work
[2] = test system: DDRNAs with telomeric sequence; assay: LNA transfection, 53BP1 foci after telomere uncapping in T19 fibrosarcoma cells; assay type: cell-based, human
Description: (§2) (for the experiments in FIGS. 35-36). T19 fibrosarcoma cells (van Steensel, Cell 1998) were grown in DMEM supplemented with 10% fetal bovine serum, 1% glutamine and doxycycline (100 ng/ml). For induction, cells were grown without doxycycline for at least 7-8 days. CRE-ER TRF2^flox/flow MEFs (Lazzerini Denchi and de Lange, Nature 2007) were grown in DMEM supplemented with 10% fetal bovine serum and 1% glutamine. For induction, cells were grown in presence of 4-hydroxytamoxifen (600 nM) for 48 hours. For BrdU incorporation, cells were labeled with 10 μg/ml bromodeoxyuridine (BrdU, Sigma) for 16 hours and incorporation was evaluated by immunofluorescence after DNA denaturation.
(§3) (for the experiments in FIGS. 35-36). Cells were fixed with 1:1 methanol/acetone solution for 2 minutes at room temperature, or 4% paraformaldehyde for 10 minutes at room temperature. After blocking, cells were stained with primary antibodies for 1 h at room temperature, washed and incubated with conjugated secondary antibodies for 40 minutes at RT. Nuclei were stained with DAPI (1 μg/ml).
(§4) (for the experiments in FIG. 36). LNA were first boiled at 90° C. for 5 minutes, chilled at 4° C. for 5 minutes and transfected with Lipofectamine RNAiMAX (Invitrogen) at the final concentration of 200 nM.

[3] = test system: DDRNAs with telomeric sequence; assay: LNA transfection, BrdU incorporation after telomere uncapping in T19 fibrosarcoma cells; assay type: cell-based, human; settings: LNA 200 nM, 3 days following LNA transfection
Description: as §2, §4

HEK293 cells = assay: G2/M checkpoint assay in HEK293 cells after shRNA knockdown; assay type: cell-based, human; settings: HEK293, 12, 24 and 36 hours post irradiation (5Gy)
Description: HEK 293 calcium phosphate transfected cells were irradiated with 5Gy and allowed to respond to IR-induced DNA damage in a cell culture incubator for 12, 24 or 36 hours. Then, at these three time points post irradiation, together with not irradiated cells, 1×10^6 cells were collected for Fluorescence Activated Cell Sorting (FACS) analysis, fixed in 75% ethanol in PBS, 30 minutes on ice. Afterwards, cells were treated 12 hours with 40 μg/ml of RNase A and incubated at least 1 h with propidium iodide (PI). FACS profiles were obtained by the analysis of at least 5×10^5 cells. In the complementation experiments HEK 293 were transfected using Lipofectamine RNAi Max (Invitrogen) and 48 hours later irradiated with 5Gy. Cells were then treated as explained above.

RNA polymerase II [4] = biological target: T1, RNA polymerase II (Mus musculus, UniProt P08775); assay: 53BP1 focus reformation at the I-Sce I-induced DSB in RNase A-treated NIH2/4 cells; assay type: cell-based; settings: data not shown
T1 construct: endogenous in cells; host or cells: NIH2/4 mouse cells
Description: as §1

RNA polymerase II [5] = biological target: T2, RNA polymerase II (Homo sapiens, UniProt P24928); assay: Spontaneous 53BP1 foci reformation after RNase A treatment in irradiated HeLa cells; assay type: cell-based; settings: irradiated (2Gy) HeLa, RNase A then RNaseOUT, with α-amanitin for 10 or 45 minutes
T2 construct: endogenous in cells; host or cells: HeLa
Description: as §1, with “After RNase A digestion, the samples were washed with PBS, treated with 80 units of RNase inhibitor (RNaseOUT Invitrogen 40 units/μl) and 2 μg/ml of α-amanitin (SIGMA) for 15 minutes in a total volume of 70 μl.” left out

NIH2/4 cells [6] = assay: Short RNA sequencing of NIH2/4 cells after Dicer or Drosha knockdown by shRNA; assay type: cell-based, mouse; settings: for miRNA expression (spike-normalized reads mapping to miRBase): NIH2/4, cut and uncut, compared to wildtype; for fraction of 22-23 nt vs total short RNAs at the locus: NIH2/4, uncut and cut conditions
Description: Nuclei were isolated the day after the adenoviral infection.
Nuclear RNA shorter than 200 nt was purified using mirVana™ microRNA Isolation Kit. RNA quality was checked on a small RNA chip (Agilent) before library preparation (Supplementary FIG. 23a). For Illumina hi Seq Version3 sequencing, spike RNA was added to each RNA sample in the RNA:spike ratio of 10,000:1 before library preparation and libraries for Illumina GA IIX were prepared without spike. An improved short RNA library preparation protocol was used to prepare libraries^68. In brief, adenylated 3′ adapters were ligated to 3′ ends of 3′-OH short RNAs using a truncated RNA ligase enzyme followed by 5′ adapter ligation to 5′-monophosphate ends using RNA ligase enzyme, ensuring specific ligation of undegraded short RNAs. cDNA was prepared using a primer specific to the 3′ adapter in the presence of Dimer eliminator and amplified for 12-15 PCR cycles using a special forward primer targeting the 5′ adapter containing additional sequence for sequencing and a reverse primer targeting the 3′ adapter. The amplified cDNA library was run on a 6% polyacrylamide gel and the 100 bp band containing cDNAs up to 33 nt was extracted using standard extraction protocols. Libraries were sequenced after quality check on a DNA high sensitivity chip (Agilent). Multiplexed barcode sequencing was performed on Illumina GA-IIX (35 bp Single end reads) and Illumina Hi seq version3 (51 bp single end reads). Sequences of all the DDRNAs identified in this study will be available for free downloading by the time of publication at short read archive.
Statistical significance of downregulation of normalized miRNAs in Dicer and Drosha knockdown samples were calculated using the Wilcoxon signed-rank test.
The differences in the fraction of 22-23 nt vs total short RNAs at the locus between the wildtype, Dicer knockdown, and Drosha knockdown before and after cut was calculated by fitting a negative binomial model to the sRNA count data and performing a likelihood ratio test, keeping the fraction of 22-23 nt vs total short RNAs at the locus fixed across conditions under the null hypothesis and allowing it to vary between conditions under the alternative hypothesis.

TRF2^flox/flox MEFs = assay: RNase A treatment of TRF2 knockout MEFs with uncapped telomeres; assay type: cell-based, mouse; settings: RNase A vs BSA
Description: as §2, §3
(for the experiments in FIG. 35). CRE-ER TRF2^flox/flox MEFs (Lazzerini Denchi and de Lange, Nature 2007) were induced to generate TRF2 knockout and telomere uncapping. 48 hours later cells were permeabilized with 0.6% Tween 20 in PBS for 15 min at room temperature.

HeLa cells [7] = assay: RNase A treatment of irradiated permeabilized HeLa cells, DDR foci; assay type: cell-based, human; settings: irradiated HeLa cells (2Gy), RNase A 1 mg/ml
Description: as §1

NIH2/4 cells [8] = assay: RNase A treatment of I-Sce I cut NIH2/4 cells, foci colocalizing with Cherry-Lac; assay type: cell-based, mouse
Description: as §1

[9] = induced (Flag+) T19 cells, LNA 200 nM transfected at day 13 from induction, compared to control LNA
[10] = uninduced (Flag−) T19 cells, LNA 200 nM
[11] = Flag+ T19 cells, BrdU 16 hours, compared to Cntrl LNA

## C[C@@H]1C[C@@H]([C@H](O)CC2CC(=O)NC(=O)C2)C(=O)[C@@H](C)C1 [cyclohexamide]
HeLa cells [1]
  DDR foci formation: no impact on DDR foci formation

## NC[C@@H]1O[C@H](O[C@H]2[C@@H](O)[C@H](O[C@@H]3[C@@H](O)[C@H](N)C[C@H](N)[C@H]3O[C@H]3O[C@H](CO)[C@@H](O)[C@H](O)[C@H]3N)O[C@@H]2CO)[C@H](N)[C@@H](O)[C@@H]1O [paromomycin]
Dicer
  Dicer activity: decrease of Dicer activity

## LNA 6: LNA, SEQ ID NO: 62, GGGTTAGGGTTAGGGTTAGGG; sense telomeric sequence (LNA)
[2]; [9]
  53BP1 foci-positive cells: decrease in DDR-positive cells
[2]; [10]
  53BP1 foci-positive cells: no difference was observed
[3]; [11]
  percentage of BrdU-positive cells: significant increase
[3]; Flag− T19 cells
  percentage of BrdU-positive cells: no difference is observed

## LNA 5: LNA, SEQ ID NO: 61, CCCTAACCCTAACCCTAACCC; antisense telomeric sequence; control in FIG. 34
[2]; [9]
  53BP1 foci-positive cells: decrease in DDR-positive cells
[2]; [10]
  53BP1 foci-positive cells: no difference was observed
[3]; [11]
  percentage of BrdU-positive cells: significant increase
[3]; Flag− T19 cells
  percentage of BrdU-positive cells: no difference is observed

## shRNA against p53: pRETROSUPER shp53, short hairpin SEQ ID NO:2 (guide AGTAGATTACCACTGGAGTCTT)
HEK293 cells
  G2/M checkpoint (FACS cell-cycle profile): did not arrest upon DNA damage

## α-amanitin
RNA polymerase II [4]
  53BP1 focus reformation at the I-Sce I-induced DSB: prevents 53BP1 focus reformation
RNA polymerase II [5]
  53BP1-foci reformation: prevents 53BP1-foci reformation

## shDrosha: shRNA for mouse Drosha, SEQ ID NO:4, lentiviral pLKO.1 (CCGGCCTGGAATATGTCCACACTTTCTCGAGAAAGTGTGGACATATTCCAGGTTTTTG)
NIH2/4 cells [6]
  miRNA expression (spike-normalized reads mapping to miRBase): significantly lower expressed
  fraction of 22-23 nt vs total short RNAs at the locus: decreases

## shDicer: shRNA for mouse Dicer, SEQ ID NO:3, lentiviral pLKO.1 (CCGGGCCTCACTTGACCTGAAGTATCTCGAGATACTTCAGGTCAAGTGAGGCTTTTT)
NIH2/4 cells [6]
  miRNA expression (spike-normalized reads mapping to miRBase): significantly lower expressed
  fraction of 22-23 nt vs total short RNAs at the locus: decreases

## LNA 3: LNA, SEQ ID NO: 59, ACTGATAGGGAGTGGTAAACT; unrelated control in FIG. 36 (LNA-modified oligonucleotide, LNA positions not given here)
[2]; [9]
  53BP1 foci-positive cells: no effect

B1: RNase A: Ribonuclease A from bovine pancreas (Sigma-Aldrich R5503), broad-specificity RNA nuclease (protein, UniProt P61823 27-150, looked up)
Ribonuclease pancreatic: KETAAAKFERQHMDSSTSAASSSNYCNQMMKSRNLTKDRCKPVNTFVHESLADVQAVCSQKNVACKNGQTNCYQSYSTMSITDCRETGSSKYPNCAYKTTQANKHIIVACEGNPYVPVHFDASV
TRF2^flox/flox MEFs
  53BP1 foci: disassemble
  γH2AX foci: stable
HeLa cells [7]
  53BP1, pATM, pS/TQ and MDC1 foci: strongly reduced
  γH2AX accumulation: only slightly affected
NIH2/4 cells [8]
  53BP1, pATM and MRE11 foci colocalizing with the Cherry-Lac focus: lost
